According to ChEMBL document CHEMBL5512603, “Development of de-novo coronavirus 3-chymotrypsin-like protease (3CLpro) inhibitors since COVID-19 outbreak: A strategy to tackle challenges of persistent virus infection” (Eur J Med Chem, 2024):
pEC50, pIC50: −log10 of the molar value.

Columns and labels:
[1] = biological target: T1, Replicase polyprotein 1ab (Severe acute respiratory syndrome coronavirus 2, UniProt P0DTD1); assay: Inhibition of SARS-CoV-2 3CLp
[2] = biological target: Protein cereblon/Replicase polyprotein 1ab (Severe acute respiratory syndrome coronavirus 2, UniProt P0DTD1+Q96SW2); assay: PROTAC activity at SARS-CoV-2 Main protease/CRBN E3 ligase (unknown origin)
Protein cereblon/Replicase polyprotein 1ab, sequence (Q96SW2 whole entry, other chains not shown): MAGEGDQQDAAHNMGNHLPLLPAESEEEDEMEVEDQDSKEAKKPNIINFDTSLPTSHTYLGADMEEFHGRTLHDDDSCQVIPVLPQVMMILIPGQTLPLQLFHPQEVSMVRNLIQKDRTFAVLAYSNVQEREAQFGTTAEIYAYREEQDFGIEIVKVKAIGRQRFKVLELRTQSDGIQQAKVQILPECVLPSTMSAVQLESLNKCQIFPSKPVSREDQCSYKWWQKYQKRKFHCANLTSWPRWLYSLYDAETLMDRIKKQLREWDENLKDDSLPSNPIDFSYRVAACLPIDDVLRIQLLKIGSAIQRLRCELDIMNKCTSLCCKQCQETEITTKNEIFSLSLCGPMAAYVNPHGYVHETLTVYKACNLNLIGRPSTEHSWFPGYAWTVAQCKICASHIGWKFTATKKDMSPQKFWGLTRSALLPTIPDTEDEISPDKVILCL

[3] = biological target: T1, Replicase polyprotein 1ab; assay: Inhibition of SARS-CoV-2 recombinant main protease; assay type: single protein
[4] = biological target: T1, Replicase polyprotein 1ab; assay: Inhibition of 2019-nCoV-2 3CLp using fluorescent substrate by FRET assay
[5] = biological target: T1, Replicase polyprotein 1ab; assay: Inhibition of SARS-CoV-2 3CLp by mass spectrometry
[6] = Cytotoxicity against African green monkey Vero E6 cells; assay type: toxicity, cell-based, Vero C1008; conditions: chlorocebus sabaeus
[7] = biological target: T1, Replicase polyprotein 1ab; assay: Inhibition of SARS-CoV-2 3CLp using fluorescent substrate by FRET assay

Cn1cc2cc(/N=c3\[nH]c(=O)n(Cc4cn(CCCC(=O)Nc5cccc6c5C(=O)N(C5CCC(=O)NC5=O)C6=O)nn4)c(=O)n3Cc3cc(F)c(F)cc3F)c(Cl)cc2n1 (stereo not given)
pIC50 [1]: > 7.00
pEC50 [2]: > 7.00

COCCCc1cc(Cl)cc(-c2cc(-c3c[nH]c(=O)[nH]c3=O)cn(-c3cccnc3)c2=O)c1
pIC50 [3]: 7.60

Cn1cc2cc(/N=c3\[nH]c(=O)n(Cc4nnn[nH]4)c(=O)n3Cc3cc(F)c(F)cc3F)c(Cl)cc2n1
pIC50 [4]: 6.92

CN(C)CCn1cc2cc(Nc3nc(=O)n(Cc4ccc[nH]c4=O)c(=O)n3Cc3cc(F)c(F)c(F)c3)c(Cl)cc2n1
pIC50 [5]: > 6.00

Cn1cc2cc(/N=c3\[nH]c(=O)n(Cc4cn(CCC(=O)Nc5cccc6c5C(=O)N(C5CCC(=O)NC5=O)C6)nn4)c(=O)n3Cc3cc(F)c(F)cc3F)c(Cl)cc2n1 (stereo not given)
pIC50 [1]: < 7.00
pEC50 [2]: < 7.00

Cn1cc2cc(/N=c3\[nH]c(=O)n(Cc4cn(CCCCCC(=O)Nc5cccc6c5C(=O)N(C5CCC(=O)NC5=O)C6=O)nn4)c(=O)n3Cc3cc(F)c(F)cc3F)c(Cl)cc2n1 (stereo not given)
pIC50 [1]: > 7.00
pEC50 [2]: > 7.00

C[C@H](NC(=O)[C@@H](c1cccnc1)N(C(=O)c1ccco1)c1ccc(C(C)(C)C)cc1)c1ccccc1
pIC50 [4]: 5.24

Cc1cccc(OCc2cc(Cl)cc(-c3cc(-c4c[nH]c(=O)[nH]c4=O)cn(-c4cccnc4)c3=O)c2)c1
pIC50 [3]: 6.96

O=c1[nH]cc(-c2cc(-c3cc(Cl)cc(COc4cccc(F)c4)c3)c(=O)n(-c3cccnc3)c2)c(=O)[nH]1
pIC50 [3]: 7.43

Cn1cc2cc(Nc3nc(=O)n(Cc4ccc[nH]c4=O)c(=O)n3Cc3cc(F)c(F)c(F)c3)c(Cl)cc2n1
pIC50 [5]: > 6.00

CCn1cc2cc(Nc3nc(=O)n(-c4cncc(Cl)c4)c(=O)n3Cc3cc(C#N)ccc3Cl)ccc2n1
pIC50 [5]: 6.45

Cn1cnc(Cn2c(=O)cc(Nc3cc4cn(C)nc4cc3C(F)(F)F)n(Cc3cc(Cl)c(Cl)cc3F)c2=O)n1
pIC50 [5]: 7.85

COc1ccc(Nc2nc(=O)n(Cc3ccc[nH]c3=O)c(=O)n2Cc2cc(F)c(F)c(F)c2)cc1
pIC50 [5]: > 6.00

Cn1cnc(Cn2c(=O)cc(Nc3cc4cn(C)nc4cc3F)n(Cc3cc(Cl)c(F)cc3F)c2=O)n1
pIC50 [5]: 7.74

Cc1ccccc1OCc1cc(Cl)cc(-c2cc(-c3c[nH]c(=O)[nH]c3=O)cn(-c3cccnc3)c2=O)c1
pIC50 [3]: 7.00

Cn1cc2cc(/N=c3\[nH]c(=O)n(Cc4cn(CCCCCCCC(=O)Nc5cccc6c5C(=O)N(C5CCC(=O)NC5=O)C6=O)nn4)c(=O)n3Cc3cc(F)c(F)cc3F)c(Cl)cc2n1 (stereo not given)
pIC50 [1]: < 7.00
pEC50 [2]: < 7.00

C[C@H](NC(=O)[C@@H](c1cccnc1)N(C(=O)c1ccco1)c1ccc(-n2cccc2)cc1)c1ccccc1
pIC50 [4]: 6.03
CC50 [6]: > 200000 nM

CCn1cc2cc(Nc3nc(=O)n(-c4cncc(Cl)c4)c(=O)n3Cc3cc(C#N)ccc3C)ccc2n1
pIC50 [5]: 6.63

Cn1cc2cc(/N=c3\[nH]c(=O)n(Cc4cn(CCC(=O)Nc5cccc6c5C(=O)N(C5CCC(=O)NC5=O)C6=O)nn4)c(=O)n3Cc3cc(F)c(F)cc3F)c(Cl)cc2n1 (stereo not given)
pIC50 [1]: < 7.00
pEC50 [2]: < 7.00

Cc1nc2cc(Br)c(Nc3nc(=O)n(Cc4ncn(C)n4)c(=O)n3Cc3cc(F)c(F)c(F)c3)cc2s1
pIC50 [5]: > 6.00

Cn1cnc(Cn2c(=O)nc(Nc3cc4sc(N)nc4cc3Cl)n(Cc3cc(F)c(F)c(Cl)c3)c2=O)n1
pIC50 [5]: > 6.00

O=c1[nH]cc(-c2cc(-c3cc(Cl)cc(COc4ccccc4F)c3)c(=O)n(-c3cccnc3)c2)c(=O)[nH]1
pIC50 [3]: 7.62

N#Cc1ccccc1-c1cc(-c2cccc(Cl)c2)cn(-c2cccnc2)c1=O
pIC50 [3]: 5.00

Cn1cnc(Cn2c(=O)cc(Nc3cc4cn(C)nc4cc3Cl)n(Cc3cc(F)c(F)cc3F)c2=O)n1
pIC50 [5]: 8.00

CC(C)(C)c1ccc(N(C(=O)c2ccco2)[C@@H](C(=O)NC2CCCCC2)c2cccnc2)cc1
pIC50 [4]: 5.62
CC50 [6]: 18200 nM

Cn1cc2cc(/N=c3\[nH]c(=O)n(Cc4cn(CCCCCCCC(=O)Nc5cccc6c5C(=O)N(C5CCC(=O)NC5=O)C6)nn4)c(=O)n3Cc3cc(F)c(F)cc3F)c(Cl)cc2n1 (stereo not given)
pIC50 [1]: < 7.00
pEC50 [2]: < 7.00

CC(C)(O)Cn1cc2cc(Nc3nc(=O)n(Cc4ccc[nH]c4=O)c(=O)n3Cc3cc(F)c(F)c(F)c3)c(Cl)cc2n1
pIC50 [5]: > 6.00

COc1ccc(Nc2nc(=O)n(Cc3ccc[nH]c3=O)c(=O)n2Cc2cc(F)c(F)c(F)c2)c(OC)c1
pIC50 [5]: > 6.00

O=c1[nH]cc(-c2cc(-c3cc(Cl)cc(COc4ccccc4Cl)c3)c(=O)n(-c3cccnc3)c2)c(=O)[nH]1
pIC50 [3]: 7.74

CCOC(=O)/C=C/C(=O)N(c1ccc(-c2ccccc2)cc1)[C@@H](C(=O)N[C@@H](C)c1ccccc1)c1cccnc1
pIC50 [7]: < 4.70

C=C(Cl)C(=O)N(c1ccc(-c2ccccc2)cc1)[C@@H](C(=O)N[C@@H](C)c1ccccc1)c1cccnc1
pIC50 [7]: 5.37

Cn1cnc(Cn2c(=O)nc(Nc3cc4sc(NCC(F)F)nc4cc3Cl)n(Cc3cc(F)c(F)c(F)c3)c2=O)n1
pIC50 [5]: > 6.00
